The values that follow come from patent publication US7499847B2, “Crystalline VAP-1 and uses thereof” (Biotie Therapies Corporation, priority 2003, dated 2009).

Assay [1] deals with T1, Total rat MAO (rat liver mitochondrial preparate).
T1 construct: Rat MAO was prepared from rat liver; Mitochondrial preparate was aliquoted and stored at −70° C
Kind of assay: Total rat MAO activity, colourimetric assay (tyramine substrate). The assay is classed as biochemical. The note with it: rat liver MAO preparation, 0.5 mM tyramine, 1 h at 37° C.; read-out: Total MAO inhibitory activity IC50. As for the experimental part: Rat MAO was prepared from rat liver by rinsing a 1 g liver sample several times in 14 ml KCl-EDTA-solution to remove all blood. Then 1 g liver sample was homogenised in 4 ml ice-cold potassium phosphate buffer (0.1 M, pH 7.4) with an Ultra-Turrax homogeniser (setting 11 000 rpm, 4×10 s). After centrifugation at 500 g for 10 min at 4° C. the supematant was carefully withdrawn and was centrifuged at 12 300 g for 15 min at 4° C. The supernatant was discharged and sedimented mitochondria were resuspended in 4 ml fresh phosphate buffer and centrifuged as previously. The mitochondria were suspended in 4 ml phosphate buffer and homogenized with an Ultra-Turrax homogeniser (setting 11 000 rpm, 2×10 s). Mitochondrial preparate was aliquoted and stored at −70° C. […] To each well was added a predetermined amount of inhibitor if required. The amount of inhibitor varied in each assay but was generally at a final concentration of between 10 nM and […]. Controls lacked inhibitor. […] The plates were incubated for 30 min at 37° C. and the background absorbance measured at 490 nm using a Wallac Victor II multilabel counter. To initiate the enzyme reaction 20 μl of 5 mM tyramine (final concentration 0.5 mM) was added and the plate incubated for 1 h at 37° C. The increase in absorbance, reflecting MAO activity, was measured at 490nm. Inhibition was presented as percent inhibition compared to control after correcting for background absorbance and IC50 values calculated using GraphPad Prism. Clorgyline and pargyline (inhibitors of MAO-A and -B respectively) at 0.5 μM were added to some wells as positive controls for MAO inhibition.

In assay [2] the target is T2, Recombinant human VAP-1 SSAO (Homo sapiens, UniProt Q16853).
T2 construct: expressed in transfected cells; host or cells: CHO cells (clarified NP40 lysate used directly)
T2 sequence (Q16853 1-763): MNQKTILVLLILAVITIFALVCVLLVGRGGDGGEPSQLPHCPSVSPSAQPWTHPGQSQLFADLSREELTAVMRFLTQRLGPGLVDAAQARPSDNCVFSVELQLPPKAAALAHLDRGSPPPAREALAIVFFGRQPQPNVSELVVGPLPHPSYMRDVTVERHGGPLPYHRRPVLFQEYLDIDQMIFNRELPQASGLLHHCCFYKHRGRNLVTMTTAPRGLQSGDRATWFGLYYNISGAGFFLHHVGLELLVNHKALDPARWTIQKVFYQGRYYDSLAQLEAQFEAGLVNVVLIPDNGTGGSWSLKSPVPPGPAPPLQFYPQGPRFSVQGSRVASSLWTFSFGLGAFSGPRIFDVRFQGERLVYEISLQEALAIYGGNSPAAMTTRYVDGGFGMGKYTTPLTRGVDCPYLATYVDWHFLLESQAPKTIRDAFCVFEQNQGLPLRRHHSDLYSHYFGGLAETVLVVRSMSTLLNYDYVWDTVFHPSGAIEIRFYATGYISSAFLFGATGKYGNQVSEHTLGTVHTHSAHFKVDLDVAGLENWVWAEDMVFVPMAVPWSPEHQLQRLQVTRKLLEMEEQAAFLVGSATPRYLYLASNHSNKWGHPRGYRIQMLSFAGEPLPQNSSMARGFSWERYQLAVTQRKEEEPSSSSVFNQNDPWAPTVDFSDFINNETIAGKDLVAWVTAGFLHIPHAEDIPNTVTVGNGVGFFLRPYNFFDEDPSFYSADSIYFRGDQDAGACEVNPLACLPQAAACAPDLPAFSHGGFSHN
As to the kind of experiment: VAP-1 SSAO activity, coupled colourimetric assay (benzylamine substrate). The assay is classed as biochemical. The conditions noted are these: for pIC50: CHO cell lysate with recombinant human VAP-1 SSAO, 1 mM benzylamine, 1 h at 37° C., read-out: VAP-1 SSAO inhibitory activity IC50; for Selectivity for VAP-1 SSAO over MAO: ratio of total rat MAO IC50 to human VAP-1 SSAO IC50. As for the experimental part: VAP-1 SSAO activity was measured using the coupled colourimetric method essentially as described for monoamine oxidase and related enzymes. Recombinant human VAP-1 SSAO expressed in Chinese Hamster Ovary (CHO) cells was used as a source of VAP-1 SSAO for activity measurements. Native CHO cells have negligible SSAO activity. These cells and their culture have previously been described (Smith D J et al., 1998).
A cell lysate was prepared by suspending approximately 3.6×10^8 cells in 25 ml lysis buffer (150 mM NaCl, 10 mM Tris-Base pH 7.2, 1.5 mM MgCl2, 1% NP40) and incubating at 4° C. overnight on a rotating table. The lysate was clarified by centrifugation at 18000 g for 5 min at room temperature and the supematant used directly in the assay.
The VAP-1 SSAO assay was performed in 96 well microtitre plates as follows. To each well was added a predetermined amount of inhibitor if required. The amount of inhibitor varied in each assay but was generally at a final concentration of between 1 nM and 50 μM. Controls lacked inhibitor. The inhibitor was in a total volume of […] in water. The following reagents were then added. 0.2M potassium phosphate buffer pH 7.6 to a total reaction volume of 200 μl, 45 μl of freshly made chromogenic solution containing 1 mM 2,4-dichlorophenol, 500 μM 4-aminoantipyrine and 4 U/ml horseradish peroxidase and an amount of CHO cell lysate containing VAP-1 SSAO that caused a change of 0.6 A490 per h. This was within the linear response range of the assay.
The plates were incubated for 30 min at 37° C. and the background absorbance measured at 490 nm using a Wallac Victor II multilabel counter. To initiate the enzyme reaction 20 μl 10 mM benzylamine (final concentration=1 mM) was added and the plate incubated for 1 h at 37° C.
The increase in absorbance, reflecting VAP-1 SSAO activity, was measured at 490 nm. Inhibition was presented as percent inhibition compared to control after correcting for background absorbance and IC50. values calculated using GraphPad Prism.

pIC50: −log10 of the molar value.

`COC(COc1cccc2ccccc12)CN(C)N.O=C(O)/C=C\C(=O)O` (stereo not drawn) [Compound 5]: the figures for the negative logarithm of the IC50 (pIC50) in assay [1] and in assay [2] were 5.40 and 6.28, respectively. In assay [2], the “Selectivity for VAP-1 SSAO over MAO” value is recorded as 8.
Consider `COc1cccc(OCC(O)CN(C)N)c1.O=C(O)/C=C/C(=O)O` (stereo not drawn) [Compound 12], for which, in assay [1], the pIC50 is 4.43. In assay [2], the pIC50 was 6.48 and the “Selectivity for VAP-1 SSAO over MAO” value is given as 112.
In the same order, the values of `CN(N)CC(O)COc1ccc(Cl)cc1.O=C(O)/C=C/C(=O)O` (stereo not drawn) [Compound 17] are 5.21, 6.37 and 14.
In the same order, the values of `CN(N)CC(O)COc1ccccc1.O=C(O)/C=C\C(=O)O` (stereo not drawn) [Compound 1] are 4.89, 6.43 and 35.
In the same order, the values of `Cc1ccc(OCC(O)CN(C)N)cc1.O=C(O)/C=C/C(=O)O` (stereo not drawn) [Compound 4] are 5.00, 6.37 and 23.
For `CN(N)CC(O)CN(C)c1ccccc1.O=C(O)/C=C/C(=O)O` (stereo not drawn) [Compound 19], the negative logarithm of the IC50 (pIC50) in assay [1] was 5.06. In addition, in assay [2], the pIC50 was 6.70 and the “Selectivity for VAP-1 SSAO over MAO” value was found to be 45.
In the same order, the values of `Cc1ccccc1OCC(O)CN(C)N.O=C(O)/C=C/C(=O)O` (stereo not drawn) [Compound 2] are 5.06, 6.28 and 17.
The like results for `COC(CSc1ccccc1)CN(C)N.O=C(O)/C=C/C(=O)O` (stereo not drawn) [Compound 14] were, in that order, 5.47, 6.43 and 9.
The like results for `COc1ccc(SCC(O)CN(C)N)cc1OC.O=C(O)/C=C/C(=O)O` (stereo not drawn) [Compound 9] were, in that order, 4.39, 6.68 and 195.
With `COC(COc1ccc(C)cc1)CN(C)N.O=C(O)/C=C/C(=O)O` (stereo not drawn) [Compound 7], the negative-log IC50 (pIC50) in assay [1] was 5.22; in assay [2], 6.36. In assay [2], the “Selectivity for VAP-1 SSAO over MAO” value was determined as 14.
In the same order, the values of `CN(N)CC(O)COc1cccc2ccccc12.O=C(O)/C=C\C(=O)O` (stereo not drawn) [Compound 8] are 5.00, 6.19 and 15.
In the case of `COC(COc1ccc(Cl)cc1)CN(C)N.O=C(O)/C=C/C(=O)O` (stereo not drawn) [Compound 3], the negative-log IC50 (pIC50) was 5.48 in assay [1] and 6.59 in assay [2]. For the same compound, the “Selectivity for VAP-1 SSAO over MAO” value in assay [2] was found to be 13.
The like results for `CN(N)CC(O)CSc1ccccc1.O=C(O)/C=C/C(=O)O` (stereo not drawn) [Compound 11] were, in that order, 4.96, 6.57 and 41.
The like results for `COC(COc1ccc2ccccc2c1)CN(C)N.O=C(O)/C=C/C(=O)O` (stereo not drawn) [Compound 13] were, in that order, 5.48, 6.19 and 5.
In the same order, the values of `CN(N)CC(O)COc1ccc2ccccc2c1.O=C(O)/C=C/C(=O)O` (stereo not drawn) [Compound 10] are 5.22, 6.26 and 11.
For `COc1ccc(OCC(O)CN(C)N)cc1.O=C(O)/C=C\C(=O)O` (stereo not drawn) [Compound 16], the pIC50 in assay [1] is 5.13. Also, in assay [2], the negative-log IC50 (pIC50) was 6.46 and the “Selectivity for VAP-1 SSAO over MAO” value is on record as 21.
The like results for `COC(CN(C)N)CN(C)c1ccccc1.O=C(O)/C=C/C(=O)O` (stereo not drawn) [Compound 20] were, in that order, 5.02, 6.47 and 28.
The like results for `COc1ccc(OCC(O)CNNc2ccccc2)cc1.Cl` (stereo not drawn) [Compound 6] were, in that order, 5.48, 7.05 and 37.
